What was measured:
[1] = tested on: B16-luc cells; assay: Tail vein model (induced metastasis), B16-luc, bioluminescence imaging; type: in vivo, SCID/beige mice; conditions: single 24 h pre-treatment, three week period
Procedure: B16-luc cells were pre-treated for 24 hrs with 1 micromolar C90, then trypsinized, washed in PBS and spun down at 650 rpm to be resuspended in HBSS at the appropriate cell density for injection (1×10^6 cells). Injection was boosted with 10 micromolar C90. Cell where then injected in the dorsal tail vein of severe combined immunodeficient (SCID)/beige mice (Taconic Inc., Germantown, N.Y.).
(§1) Cells prepared for xenograft injections were pretreated with C-90 for 24 h. Cells were injected in to mice (5 per group) by either tail vein (B16-luc, induced metastasis model) or subcutaneously (PC3M-luc, spontaneous metastasis model). Imaging of the PC3M cell metastases in lungs ex vivo (FIG. 14A)) correlated with earlier scans of intact animals (data not shown). Units are proportional to photons emitted within a defined time interval (total flux).

[2] = tested on: PC3M-luc cells; assay: Subcutaneous tumor model (spontaneous metastasis), PC3M-luc xenograft, bioluminescence imaging; type: in vivo, SCID/beige mice; conditions: cells pre-treated 24 h with 1 micromolar
Procedure: PC3M-luc cells were pre-treated for 24 hrs with 1 micromolar C90, then trypsinized, washed in PBS and spun down at 650 rpm to be resuspended in HBSS at the appropriate cell density for injection (1×10^6 cells). Injection was boosted with 10 micromolar C-90. Cell where then injected in the right flank SCID/beige mice (Taconic Inc., Germantown, N.Y.). On indicated days, mice were injected with 150 mg/kg of D-luciferin (potassium salt, Xenogen Corp., Alameda, Calif.) and placed for imaging in the In vivo Imaging System (Xenogen) with total imaging time of 1 or 5 minutes. Total body bioluminescence was quantified by integrating the photonic flux (photons per second) through a region of interest drawn around each mouse.
as §1

[3] = tested on: PC3M cells; assay: Growth rate and viability in culture of C-90 treated PC3M cells; type: cell-based, human; conditions: treated 24 h, three week study period
[4] = tested on: HMVE cells; assay: HMVE cell proliferation; type: cell-based, human
Procedure: HUVE or HMVE cells were seeded per triplicate in type I collagen-coated 48-well plates (Biocoat) (3000 cells/well) in […] of complete EGM-Bullet Kit medium (BioWhittaker, Walkersville, Md.), allowed to attach for 4 hr and incubated overnight with or without the indicated concentrations of peptide 2. The cultures were rinsed twice in serum-free medium and incubated with EBM medium (BioWhittaker) supplemented with 50 μg/ml heparin, 50 μg/ml ascorbic acid and 10% FCS. After either 4 days (HUVE) or 5 days (HMVE), cells were harvested with trypsin/EDTA and counted with an hemocytometer. The mean number of cells per ml was calculated from 3 independent measures for each of triplicate wells per experimental condition and compared to controls using the Student's unpaired t-test. Results set forth in FIG. 12 are described as the ratio of growth factor-treated to control proliferating cells designated on the y-axis as “Proliferation (Fold Increase)”.

[5] = tested on: MDCK cells; assay: Extracellular matrix invasion assay, MDCK cells in collagen gels; type: cell-based, canine; conditions: HGF 10 ng/ml, peptide 100 nM, 5 days
Procedure: MDCK cell invasion into three-dimensional collagen gels was analyzed as previously described. Briefly, type I collagen (1.5 mg/ml; Cohesion Technologies) was mixed with 10×MEM and sodium bicarbonate (11.76 mg/ml) at a ratio of 8:1:1 (vol:vol:vol) on ice, and 0.4 ml aliquots were dispensed into 16-mm tissue culture wells (Nunc), and allowed to gel at 37° C. for 20 min. Cells were seeded onto gels (1×10^4 cells/well) in 0.4 ml of growth medium containing HGF and/or peptides 1 or 4 as indicated. After 5 days, cells were fixed in situ in 2.5% glutaraldehyde in 0.1 M sodium cacodylate buffer (pH 7.4), and cells that had invaded the gel below the surface monolayer in ten randomly selected fields (1×1.4 mm) were counted microscopically using a 20× phase contrast objective. Depth of cellular invasion into the collagen gel was quantitated in the same ten fields per treatment group using a calibrated fine focusing micrometer. Values were compared using the Student's unpaired t-test and a significant value was taken as P<0.001. Results in Table 1 are shown as the mean number of invading cells/field or mean invasion depth/cell in microns+standard error of the mean.
MDCK cells were left untreated (Control), treated with HGF (10 ng/ml), or HGF+peptide 2 or 4 (100 nM), and invasion into collagen matrices was quantitated microscopically as described above. Values are the mean of at least 10 randomly selected fields±standard error of the mean. Epithelial Tube Formation Assay

[6] = tested on: HMEC-1 cells; assay: HMEC-1 cell migration, modified Boyden chamber; type: cell-based, human; conditions: VEGF
Procedure: (§2) The migration assay of HUVE and HMEC-1 cells in modified Boyden chambers was adapted from previously described procedures (Murohara et al., Thromb. Vasc. Biol., 19: 1156-61 (1999), Malinda et al., FASEB J., 13: 53-62 (1999)). In brief, Biocoat Cell Environment control inserts (8 micron pore size; Becton Dickinson) were coated with 0.1% gelatin (Sigma) for at least 1 hour at 37° C. and air dried. Lower chambers contained 0.7 ml RPMI+0.1% BSA, to which 20 ng/ml HGF and/or 300 nM Grb2 inhibitors were added. Cells were pre-treated with the indicated concentrations of Grb2 inhibitors for 18-24 hours, trypsinized, washed twice in RPMI+0.1% BSA, added to upper chambers (5×10^4 cells/well) with or without inhibitors in a final volume of 0.5 ml, and incubated for 4 h at 37° C. Cells on the upper surface of each filter were removed with a cotton swab, while cells that had traversed to the bottom surface of the filter were fixed and stained using Diff-Quik (Dade Diagnostics) and counted using a 10× objective. Mean values from 4 randomly selected fields (1×1.4 mm) were calculated for each of triplicate wells per experimental condition. Shown in FIG. 6 is the ratio of growth factor-treated to control migrating cells designated on the y-axis as “Migration (Fold Increase)” or as the mean number of cells per optical field in FIGS. 8-11.

[7] = tested on: NIH 3T3 fibroblasts; assay: NIH 3T3 fibroblast migration, modified Boyden chamber; type: cell-based
Procedure: as §2
PDGF is implicated in different biological processes such vascular remodeling, wound healing and cancer (for reviews, see Bornfeldt et al., Ann N Y Acad. Sci., 766:416-30, 1995; Gendron, Surv. Ophthalmol., 44:184-5, 1999). Addition of 50 ng/ml PDGF-BB to NIH 3T3 fibroblasts incubated in a modified Boyden chamber results in a dramatic, 20-fold increase in cell migration. […] This observation opens a potential therapeutical use of the Grb2 inhibitor compounds in the treatment of diseases such as cancer, wound healing disorders, vascular complications of diabetes mellitus, vascular nephropathies, and diseases with occurrence of fibrosis.

Structure (SMILES): NC(=O)C[C@H](NC(=O)C1(NC(=O)[C@H](Cc2ccc(C(C(=O)O)C(=O)O)cc2)NC(=O)C(=O)O)CCCCC1)C(=O)NCCCc1cccc2ccccc12 [peptide 2, (N-oxalyl-4-malonyl)-Phe-Ac6c-Asn-NH-(3-naphthalen-1-yl-propyl)]
- ability to form lung metastases relative to untreated control cells [1]: significantly reduced ability to form lung metastases
- primary tumor growth (mass, volume ex vivo) [2]: did not affect primary tumor growth
- metastatic rate (lung metastases ex vivo, total flux) relative to untreated control cells ([2]; injection boosted with 10 micromolar): significantly reduced the metastatic rate
- growth rate and viability in culture [3]: identical growth rate and viability as untreated cells
- HMVE cell growth ([4]; peptide 30 nM, presence and absence of growth factors): basically resistant
- HMVE cell growth ([4]; peptide 300 nM): highly significant (p<0.001) inhibition of cell growth
- Mean Invading Cells/Field [5]: 12.6 ± 1.9
- Mean Invasion Depth/Cell [5]: 17.9 ± 1.9 μm
- VEGF-induced cell migration [6]: significantly (p<0.001) reverted
- PDGF-BB-induced NIH 3T3 cell migration ([7]; co-added with PDGF-BB 50 ng/ml): inhibits NIH 3T3 cell migration in a significant (p<0.001), dose-dependent manner
- reduction in the mean number of cells per field ([7]; peptide 30 nM, PDGF-BB 50 ng/ml): 60%

Source: US7871981B2, “Inhibition of cell motility, angiogenesis, and metastasis” (The United States of America as represented by the …, priority 1999, dated 2011)
